Tested on: BALB/cByJ CRL mice
Experiment: SCFA production in caecum content of mice fed low-fiber diets enriched with 5% of tested fibers, measured by Gas-Liquid Chromatography
Format: in vivo
Conditions: 5 wt % fiber, versus low-fiber diet only
Description: 5 week old females BALB/cByJ CRL mice from Charles River were split into several groups and fed during 6 weeks based on the following protocol: • Week 1: low-fiber diet (composition is detailed in table 2) for all groups • Weeks 2 to 6: • Control group (group A): low-fiber diet (same as for week 1) • Test groups (groups B-D): low-fiber diet (same as for week 1) supplemented with 5 wt % of a tested fiber (5% of the total low fiber diet was replaced by 5% of a tested fiber)
The following fibers were tested: • BMOs=bovine milk oligosaccharides: an oligosaccharide mixture comprising 99.3% of GOS, 0.2% of N-acetylated oligosaccharide and 0.5% sialylated oligosaccharide was tested • PDX=polydextrose • Pectin
After 6 weeks, the animals of each group were sacrificed and the content from caecum was collected. The SOFA production were measured by Gas-Liquid Chromatography (GLC; amounts of SOFA in nmol/mg dry weight). The following SOFA were measured: propionate, butyrate, valerate and acetate.
The measure was made based on the following protocol: SOFA in an acid solution (pH 2.0 to 3.0) were separated on a GLC column coated with a polar stationary phase. […] After centrifugation, the sterile-filtered supernatant was ready for analysis by GLC. SOFA were measured simultaneously.
Median ratio values were calculated in order to compare the different fiber-enriched diets on SOFA production.

Pectin was tested, and the “Caecal SCFA production (acetate, propionate, butyrate, valerate) compared with low-fiber diet” value was “less SOFA release of all kinds”.
With polydextrose [PDX] the “Caecal SCFA production (acetate, propionate, butyrate, valerate) compared with low-fiber diet” value was “less SOFA release of all kinds”.

Reference: patent publication US20190046545A1, “COMPOSITIONS WITH SPECIFIC OLIGOSACCHARIDES TO PREVENT LATER IN LIFE OBESITY OR RELATED COMORBIDITIES, BY INCREASING COLONIC SCFA PRODUCTION AND/OR BY INCREASING GLP-1 SECRETION” (NESTEC S.A., priority 2016, published 2019)
